Data: patent US5840918A, “Isoprenyl transferase inhibitors” (Eisai Co., Ltd., priority 1997, dated 1998)

Legend:
[1] = target: T1, FTase (Bos taurus, UniProt P29702+P49355); experiment: Inhibition of FTase-mediated prenylation (in vitro prenylation assay); format: biochemical; conditions: Table 1; partially purified FTase, 3 μM recombinant H-ras, 440 nM [3H]FPP, 15 min 37° C
T1 construct: bovine brain by inference from the cited Moores et al. 1991
Source text: (§1) Nanomolar concentrations of the indicated compounds were sufficient to inhibit farnesylation of ras proteins in vitro. For screening candidate compounds useful for the treatment of ras-associated tumors, the FTase assay is preferred. […] Substitutions which confer GGTase specificity as taught herein also produced potent inhibitors of GGTase.

[2] = test system: H-ras farnesylation in H-ras (61L) transformed NIH3T3 fibroblasts; experiment: Inhibition of H-ras farnesylation in whole cells (Western blot); format: cell-based, mouse
Protocol: The ability of compounds of the invention to inhibit H-ras farnesylation and rap1 geranylgeranylation in whole cells was determined. H-ras (61L) transformed NIH3T3 fibroblasts were generously provided by C. Der, Univ. N. Carolina. These fibroblasts were treated for 24 h with 50 μM lovastatin (control) or the indicated concentrations of inhibitor. The cells were lysed in 1% NP-40, 5 mM Tris-HCl (pH 8.0), 5 mM EDTA, 0.1 mM N-tosyl-L-phenylalanine chloromethyl ketone, 0.1 mM N-tosyl-L-lysine chloromethyl ketone, and 1 mM phenylmethylsulfonyl fluoride. The lysate was centrifuged (15000×g, 5 min.) and the supernatant was used as a cell extract. […] After transfer to IMMOBILON P™ membrane (Millipore), the blots were probed with LA069 mouse monoclonal antibody to H-ras (Quality Biotech), or rabbit polyclonal antibody to rap1/Krev (Santa Cruz Biotechnology). All Western blots were developed using ECL chemiluminescent reagents (Amersham).

[3] = target: GGTase; experiment: Inhibition of GGTase-mediated prenylation (in vitro prenylation assay); format: biochemical; conditions: Table 1; partially purified GGTase, 5 μM recombinant H-ras (61L, CAIL), 1 μM [3H] geranylgeranyl diphosphate
Source text: as §1

[4] = Mus musculus, NIH3T3, 24 h, Table 2

| IC50 [1] | IC50 [3] | Compound | IC50 [2, 4] | IC50 ([2]; Table 2, 24 h) |
| --- | --- | --- | --- | --- |
| 710 nM | 950 nM | CSCC[C@H](NC(=O)c1cc(C/C=C/C(N)CS)ccc1-c1ccc(C(F)(F)F)cc1)C(=O)O (stereo partly shown) [PM071] | > 100000 nM | – |
| 605 nM | 3870 nM | CCOC(=O)[C@H](CCSC)NC(=O)c1cc(C/C=C/C(N)CS)ccc1-c1ccccc1 (stereo partly shown) [PM151] | 2900 nM | – |
| 56 nM | 1840 nM | CCc1ccc(C/C=C/C(N)CS)cc1C(=O)N[C@@H](CCSC)C(=O)OC (stereo partly shown) [PM212] | 45 nM | – |
| 56 nM | 123 nM | NC(/C=C/Cc1ccc(-c2ccccc2)c(C(=O)N[C@@H](Cc2ccccc2)C(=O)O)c1)CS (stereo partly shown) [PM172] | > 100000 nM | – |
| 0.3 nM | 190 nM | CSCC[C@H](NC(=O)c1cc(C/C=C/C(N)CS)ccc1-c1ccco1)C(=O)O (stereo partly shown) [PM052] | 2600 nM | – |
| 2 nM | 520 nM | C=Cc1ccc(C/C=C/C(N)CS)cc1C(=O)N[C@@H](CCSC)C(=O)O (stereo partly shown) [PM012] | 2700 nM | – |
| 24 nM | 793 nM | CSCC[C@H](NC(=O)c1cc(C/C=C\C(N)CS)ccc1-c1ccccc1)C(=O)O (stereo partly shown) [PM101] | 14600 nM | – |
| 22 nM | 1720 nM | CSCC[C@H](NCc1cc(C/C=C/C(N)CS)ccc1-c1ccccc1)C(=O)O (stereo partly shown) [PM121] | 23400 nM | – |
| 2 nM | > 1000 nM | NC(/C=C/Cc1ccc(-c2ccccc2)c(C(=O)N[C@@H](CO)C(=O)O)c1)CS (stereo partly shown) [PM091] | 474000 nM | – |
| 9 nM | 420 nM | CCc1ccc(C/C=C/C(N)CS)cc1C(=O)N[C@@H](CCSC)C(=O)O (stereo partly shown) [PM062] | 360 nM | – |
| 17 nM | 520 nM | CSCC[C@H](NC(=O)c1cc(C/C=C/C(N)CS)ccc1-c1cccs1)C(=O)O (stereo partly shown) [PM182] | 2700 nM | – |
| 1130 nM | 1600 nM | COc1ccc(-c2ccc(C/C=C/[C@@H](N)CS)cc2C(=O)N[C@@H](CCSC)C(=O)O)cc1 [PM011] | > 100000 nM | – |
| 605 nM | 2.4 nM | CC(C)C[C@H](NC(=O)c1cc(C/C=C/C(N)CS)ccc1-c1ccccc1)C(=O)O (stereo partly shown) [PM131] | > 250000 nM | – |
| 170 nM | 1680 nM | CSCC[C@H](NC(=O)c1cc(C/C=C/C(N)CS)ccc1-c1ccccc1)C(N)=O (stereo partly shown) [PM081] | 23400 nM | – |
| 3100 nM | 320 nM | CSCC[C@H](NC(=O)c1cc(C/C=C/[C@@H](N)CS)ccc1-c1cc(C(F)(F)F)cc(C(F)(F)F)c1)C(=O)O [PM042] | > 500000 nM | – |
| 43 nM | 638 nM | COC(=O)[C@H](CCSC)NC(=O)C(Cc1ccccc1)SC[C@@H](/C=C/C(N)CS)C(C)C (stereo partly shown) [PT011] | 23 nM | – |
| 18 nM | 130 nM | NC(C=CCc1ccc(-c2ccsc2)c(C(=O)NC(Cc2cccs2)C(=O)O)c1)CSSCC(N)C=CCc1ccc(-c2ccsc2)c(C(=O)NC(Cc2cccs2)C(=O)O)c1 (stereo not shown) [PM022] | 13100 nM | – |
| 290 nM | 4850 nM | CSCC[C@H](NC(=O)c1cccc(C/C=C/C(N)CS)c1)C(=O)O (stereo partly shown) [PM102] | 26000 nM | – |

The next lines start with the compound.

| Compound | IC50 [1] | IC50 [3] | IC50 [2, 4] | IC50 ([2]; Table 2, 24 h) |
| --- | --- | --- | --- | --- |
| COC(=O)C(CCSC)NC(=O)C(/C=C\[C@@H](/C=C/C(N)CS)C(C)C)Cc1ccccc1 (stereo partly shown) [PD371] | 38 nM | – | 90 nM | – |
| CSCC[C@H](NC(=O)C(/C=C/[C@@H](/C=C/[C@@H](N)CS)C(C)C)C(C)C)C(=O)NC(C)(C)C (stereo partly shown) [PD222] | 710 nM | 3040 nM | > 50000 nM | – |
| CSCC[C@H](NC(=O)C(Cc1cccs1)N(C)C[C@@H](/C=C/C(N)CS)C(C)C)C(=O)O (stereo partly shown) [PA071] | 22 nM | 500 nM | 3100 nM | – |
| COC(=O)[C@H](CCSC)NC(=O)C(Cc1ccccc1)NC[C@@H](/C=C/C(N)CS)C(C)C (stereo partly shown) [PA091] | 170 nM | 2380 nM | 100 nM | – |
| COC(=O)[C@H](CCSC)NC(=O)C(Cc1ccccc1)OC[C@@H](/C=C/C(N)CS)C(C)C (stereo partly shown) [PE011] | 43 nM | 1030 nM | 10 nM | – |
| CSCC[C@H](NC(=O)C(/C=C/[C@@H](/C=C/C(N)CS)C(C)C)C(C)C)C(=O)NCc1ccccn1 (stereo partly shown) [PD192] | 296 nM | 2990 nM | 180 nM | – |
| CC(C)C(/C=C/[C@@H](/C=C/C(N)CS)C(C)C)C(=O)N[C@@H](CCS(C)(=O)=O)C(=O)O (stereo partly shown) [PD172] | 7 nM | 750 nM | 13100 nM | – |
| CSCC[C@H](NC(=O)C(/C=C\[C@@H](/C=C/C(N)CS)C(C)C)Cc1ccccc1)C(=O)O (stereo partly shown) [PD401] | 28 nM | 1400 nM | 100 to 1000 nM | – |
| CSCC[C@H](NC(=O)C(/C=C/C(/C=C/CCS)C(C)C)Cc1ccccc1)C(=O)O (single isomer, unassigned) [PD052] | 2810 nM | 8050 nM | – | – |
| COC(=O)[C@H](CCSC)NC(=O)C(Cc1cccs1)NC[C@@H](/C=C/C(N)CS)C(C)C (stereo partly shown) [PA081] | 102 nM | 2660 nM | 25 nM | – |
| CCOC(=O)[C@H](CCSC)NC(=O)C(/C=C/[C@@H](/C=C/C(N)CS)Cc1ccccc1)C(C)C (stereo partly shown) [PD351] | 320 nM | 2490 nM | 3300 nM | – |
| COC(=O)[C@H](CCSC)NC(=O)C(Cc1cccs1)N(C)C[C@@H](/C=C/C(N)CS)C(C)C (stereo partly shown) [PA131] | 28 nM | 1800 nM | 39 nM | – |
| CSCC[C@H](NC(=O)C(/C=C/[C@@H](/C=C/C(N)CS)C(C)C)C(C)C)C(=O)O (stereo partly shown) [PD341] | 0.2 nM | – | 290 nM | – |
| CC[C@H](C)[C@H](NC[C@@H](/C=C/C(N)CS)C(C)C)C(=O)N[C@@H](CCSC)C(=O)O (stereo partly shown) [PA051] | 20 nM | 76 nM | 1900 nM | – |
| CC(C)[C@H](/C=C/C(N)CS)COC(Cc1ccccc1)C(=O)N[C@@H](CCS(C)(=O)=O)C(=O)O (stereo partly shown) [PE031] | 20 nM | 140 nM | 330 nM | – |
| CSCC[C@H](NCC(/C=C\[C@@H](/C=C/C(N)CS)C(C)C)Cc1ccccc1)C(=O)O (stereo partly shown) [PD431] | 6 nM | 1080 nM | – | – |
| CSCC[C@H](NC(=O)C(/C=C/[C@@H](/C=C/C(N)CS)C(C)(C)C)Cc1ccccc1)C(=O)O (stereo partly shown) [PD182] | < 1 nM | 63.3 nM | – | 2800 nM |

| Compound | IC50 [1] | IC50 [3] | IC50 [2, 4] | IC50 ([2]; Table 2, 24 h) |
| --- | --- | --- | --- | --- |
| CSCC[C@H](NC(=O)C(/C=C/[C@@H](/C=C/C(N)CS)C(C)(C)C)Cc1ccccc1)C(=O)O (stereo partly shown) [PD012] | 38 nM | 620 nM | – | 72000 nM |
| CC(C)C(/C=C/[C@@H](/C=C/C(N)CS)C(C)C)C(=O)N[C@@H](CCC(N)=O)C(=O)O (stereo partly shown) [PD022] | 5.2 nM | 3060 nM | 400 nM | – |
| CSCC[C@H](NC(=O)C(/C=C/[C@@H](/C=C/C(N)CS)C(C)C)C(C)C)C(=O)N(C)Cc1ccccn1 (stereo partly shown) [PD072] | 42 nM | 680 nM | 7400 nM | – |
| COC(=O)[C@H](CCS(C)(=O)=O)NC(=O)C(/C=C/[C@@H](/C=C/C(N)CS)C(C)C)C(C)C (stereo partly shown) [PD132] | 245 nM | 4770 nM | 2600 nM | – |
| CSCCC(NC(=O)C(/C=C\[C@@H](/C=C/C(N)CS)C(C)C)C(C)C)C(=O)O (stereo partly shown) [PD122] | 3 nM | 10 nM | 400 nM | – |
| CSCC[C@H](NC(=O)C(Cc1ccccc1)NC[C@@H](/C=C/C(N)CS)C(C)C)C(=O)O (stereo partly shown) [PA041] | 2.5 nM | 56 nM | 3500 nM | – |
| CSCCC(NC(=O)C(/C=C\C(/C=C/C(N)CS)C(C)C)Cc1ccccc1)C(=O)O (stereo not shown) [PD311] | 69 nM | 570 nM | 100 to 1000 nM | – |
| CCOC(=O)C(CCSC)NC(=O)C(C=CC(C=CC(N)CS)Cc1ccccc1)C(C)C (stereo not shown) [PD421] | 570 nM | 3400 nM | 1900 nM | – |
| COC(=O)C(CCSC)NC(=O)C(Cc1ccccc1)OCC(C=CC(N)CSSCC(N)C=CC(COC(Cc1ccccc1)C(=O)NC(CCSC)C(=O)OC)C(C)C)C(C)C (stereo not shown) [PE051] | 290 nM | 2300 nM | 110 nM | – |
| CSCC[C@H](NC(=O)C(/C=C/[C@@H](/C=C/C(N)CS)C(C)C)C(C)C)C(N)=O (stereo partly shown) [PD042] | 5 nM | 1620 nM | 1950 nM | – |
| CSCCC(NC(=O)C(C=CC(C=CC(N)CSSCC(N)C=CC(C=CC(Cc1ccccc1)C(=O)NC(CCSC)C(=O)O)C(C)C)C(C)C)Cc1ccccc1)C(=O)O (stereo not shown) [PD212] | 3 nM | 4.5 nM | 110 nM | – |
| C[C@H](/C=C/C(N)CS)/C=C/C(Cc1ccccc1)C(=O)N[C@@H](CCC(N)=O)C(=O)O (stereo partly shown) [PD102] | 394 nM | – | – | 75000 nM |
| CC(C)[C@@H](/C=C\C(Cc1ccccc1)C(=O)NC(CO)C(=O)O)/C=C/C(N)CS (stereo partly shown) [PD361] | 0.1 nM | – | 3500 nM | – |
| CC(C)CC(NC(=O)C(/C=C\[C@@H](/C=C/C(N)CS)C(C)C)Cc1ccccc1)C(=O)O (stereo partly shown) [PD381] | 80 nM | – | – | – |
| CSCCC(=O)NCC(/C=C/[C@@H](/C=C/[C@@H](N)CS)C(C)C)C(C)C (stereo partly shown) [PD082] | 1570 nM | – | – | – |
| CSCC[C@H](NC(=O)C(/C=C/[C@@H](/C=C/C(N)CS)Cc1ccccc1)C(C)C)C(=O)O (stereo partly shown) [PD391] | 29 nM | – | 16400 nM | – |
